Measurements published in patent US12545718B2 (priority 2019, dated 2026).

System: B/Malaysia/2506/04 virus
Design: species or system BALB/c mice
Conditions: mouse, in vivo

CCOC(=O)C1=C[C@@H](OC(CC)CC)[C@H](NC(C)=O)[C@@H](N)C1 [oseltamivir, Oseltamivir phosphate]
weight loss: does not protect from weight loss
